# Test results published in patent US20260209171A1, “CATIONIC LIPIDS AND MANUFACTURING METHOD THEREFOR” (SAMYANG HOLDINGS CORPORATION, priority 2022, published 2026).
# Key:
# [1] = Particle characteristics of the prepared formulation by particle size analyzer (Dynamic Light Scattering, DLS); assay type: physicochemical; conditions: mRNA formulation, compound:DOPE:Cholesterol:DMG-PEG=50:10:38.5:1.5, N/P ratio 6; for PDI (PI) / Z-average: DLS
# Protocol: (§1) According to the following table 1, the materials required for preparing the formulation were dissolved in each dilution solvent and prepared at the required concentration. When dissolving, the materials were kept at room temperature and then the solvent was added to dissolve them.
# (§2) The required amounts of the raw materials were mixed in order to meet the N/P ratio (amine group of lipid/phosphate group of mRNA) of 6 and each compound of formulas A to G:DOPE:Cholesterol:DMG-PEG=50:10:38.5:1.5. Ethanol was added to the ethanol layer so that the molecular total of all raw materials was within 12.5 mM, and the aqueous phase and ethanol phase were mixed maintaining a volume ratio of 3:1. After the mixing, to reduce the total ethanol content, buffer exchange was performed as follows: The mixture solution was concentrated by centrifugation at 4,000 rpm using an Amicon-Ultra tube filter (Merk Millipore, UFC505096 or UFC805024, pore size: 50K, volume: 15 mL), then diluted with PBS and centrifuged to concentrate. This process was repeated to exchange the buffer.
# (§3) The more concrete procedure is as follows: • 1) Two autoclaved tubes were prepared (tubes (A) and (B)). • 2) In tube (A), each compound of formulas A to G, DOPE, cholesterol and DMG-PEG in molar quantities calculated according to the experimental conditions were sequentially added and mixed by vortexing. • 3) In the ethanol phase, when necessary, ethanol was added so that the molecular total of all raw materials was within 12.5 mM. • 4) In tube (B), mRNA and 20 mM sodium acetate buffer (pH 4.6) were mixed. At that time, the ratio was calculated and added so that the aqueous phase was total three times the amount of the ethanol phase. • 5) Mixing of Tube (A) and Tube (B) was performed using a Microfluidics (Ignite, Precision Nanosystem) device. Microfluidics operating conditions were FRR (Flow Rate Ratio) of C:R=3:1 and […] (Total Flow Rate) of 12 mL/min. • 6) The resulting mixture from step 5) was centrifuged at 4,000 rpm using an Amicon-Ultra tube filter (50K), and the process of concentration and dilution was repeated to remove excess ethanol, and then concentrated to a final x mg/ml (theoretical concentration).
# (§4) • 1) For the prepared formulation, particle characteristics were confirmed using a particle size analyzer (Dynamic Light Scattering, DLS), and the results are shown in Table 2 below. • 2) For the prepared formulation, mRNA encapsulation efficiency was confirmed through Ribo-green assay, and the results are shown in Table 1 below.
# [2] = mRNA encapsulation efficiency by Ribo-green assay; assay type: physicochemical; conditions: mRNA formulation, compound:DOPE:Cholesterol:DMG-PEG=50:10:38.5:1.5, N/P ratio 6
# Protocol: as §1, §2, §3, §4
smiles,measurement,setting,value
CCCCCCCCC(OC(=O)CCCCCCCN(C)CCCCCCCC(=O)OC(CCCCCCCC)C1CC1)C1CC1 (centres unmarked) [Formula A],Zeta-potential,[1],−10.96 ± 2.69 mV
same,PDI (PI),[1],0.09 ± 0.01
same,Z-average,[1],135.0 ± 0.46 nm
CCCCCCC(OC(=O)CCCCCN(C)CCCCCC(=O)OC(CCCCCC)C1CC1)C1CC1 (centres unmarked) [Formula B],Zeta-potential,[1],−4.30 ± 3.03 mV
same,PDI (PI),[1],0.12 ± 0.03
same,Z-average,[1],183.3 ± 2.86 nm
CCCCCCCCCCC(OC(=O)CCCCCCCN(C)CCCCCCCC(=O)OC(CCCCCCCCCC)C1CC1)C1CC1 (centres unmarked) [Formula C],Zeta-potential,[1],−7.57 ± 4.12 mV
same,PDI (PI),[1],0.12 ± 0.00
same,Z-average,[1],120.0 ± 2.38 nm
same,Encapsulation efficiency,[2],95.4 ± 0.2%
CCCCCCCCC(OC(=O)CCCCCCCN(C)CCCCCCCC(=O)OC(CCCCCCCC)C1CCCCC1)C1CCCCC1 (centres unmarked) [Formula D],Zeta-potential,[1],−2.37 ± 0.39 mV
same,PDI (PI),[1],0.07 ± 0.04
same,Z-average,[1],154.6 ± 2.75 nm
same,Encapsulation efficiency,[2],97.6 ± 0.2%
CCCCCCCCC(OC(=O)CCCCCCCN(CCO)CCCCCCCC(=O)OC(CCCCCCCC)C1CC1)C1CC1 (centres unmarked) [Formula E],Zeta-potential,[1],−4.69 ± 1.56 mV
same,PDI (PI),[1],0.10 ± 0.04
same,Z-average,[1],127.4 ± 0.52 nm
same,Encapsulation efficiency,[2],98.4 ± 0.5%
CCCCCCCCC(C(=O)OCCCCCCCN(C)CCCCCCCOC(=O)C(CCCCCCCC)C1CC1)C1CC1 (centres unmarked) [Formula F],Zeta-potential,[1],−6.24 ± 3.13 mV
same,PDI (PI),[1],0.12 ± 0.02
same,Z-average,[1],131.5 ± 0.12 nm
same,Encapsulation efficiency,[2],91.1 ± 0.2%
CCCCCCC(OC(=O)CCCCCCCN(C)CCCCCCCC(=O)OC(CCCCCC)C1CC1)C1CC1 (centres unmarked) [Formula G],Zeta-potential,[1],−6.93 ± 1.48 mV
same,PDI (PI),[1],0.17 ± 0.02
same,Z-average,[1],194.9 ± 3.59 nm
same,Encapsulation efficiency,[2],92.1 ± 0.1%
